Reference: ChEMBL document CHEMBL5543175, “Discovery of Selective Proteolysis-Targeting Chimera Degraders Targeting PTP1B as Long-Term Hypoglycemic Agents” (J Med Chem, 2024)

Legend:
Format in all cases: cell-based
[1] = molecular target: T1, Protein cereblon/Tyrosine-protein phosphatase non-receptor type 1 (Homo sapiens, UniProt P18031+Q96SW2); assay: PROTAC activity at PTP1B/CRBN in insulin treated human HepG2 cells assessed as protein degradation at 500 nM incubated for 48 hrs by Western blot analysis relative to control
[2] = molecular target: T1, Protein cereblon/Tyrosine-protein phosphatase non-receptor type 1; assay: PROTAC activity at PTP1B/CRBN in insulin treated human HepG2 cells assessed as protein degradation at 5 nM incubated for 48 hrs by Western blot analysis relative to control
[3] = molecular target: T1, Protein cereblon/Tyrosine-protein phosphatase non-receptor type 1; assay: PROTAC activity at PTP1B/CRBN in insulin treated human HepG2 cells assessed as protein degradation at 50 nM incubated for 48 hrs by Western blot analysis relative to control
[4] = molecular target: T1, Protein cereblon/Tyrosine-protein phosphatase non-receptor type 1; assay: PROTAC activity at PTP1B/CRBN in insulin treated human HepG2 cells assessed as protein degradation at 5000 nM incubated for 48 hrs by Western blot analysis relative to control

T1 sequence (P18031 whole entry, looked up): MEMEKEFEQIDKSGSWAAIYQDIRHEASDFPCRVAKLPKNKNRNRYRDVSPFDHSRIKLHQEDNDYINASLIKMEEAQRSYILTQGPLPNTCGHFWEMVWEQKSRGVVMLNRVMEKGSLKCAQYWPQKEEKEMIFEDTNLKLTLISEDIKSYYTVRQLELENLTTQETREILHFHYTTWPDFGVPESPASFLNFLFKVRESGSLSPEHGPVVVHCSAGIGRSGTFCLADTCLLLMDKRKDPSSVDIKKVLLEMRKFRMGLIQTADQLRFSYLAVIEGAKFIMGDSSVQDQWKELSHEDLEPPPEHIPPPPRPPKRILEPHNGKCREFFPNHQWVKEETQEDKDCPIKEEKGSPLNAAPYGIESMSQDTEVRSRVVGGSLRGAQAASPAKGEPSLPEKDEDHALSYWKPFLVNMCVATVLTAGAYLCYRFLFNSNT
T1 sequence (Q96SW2 whole entry, looked up): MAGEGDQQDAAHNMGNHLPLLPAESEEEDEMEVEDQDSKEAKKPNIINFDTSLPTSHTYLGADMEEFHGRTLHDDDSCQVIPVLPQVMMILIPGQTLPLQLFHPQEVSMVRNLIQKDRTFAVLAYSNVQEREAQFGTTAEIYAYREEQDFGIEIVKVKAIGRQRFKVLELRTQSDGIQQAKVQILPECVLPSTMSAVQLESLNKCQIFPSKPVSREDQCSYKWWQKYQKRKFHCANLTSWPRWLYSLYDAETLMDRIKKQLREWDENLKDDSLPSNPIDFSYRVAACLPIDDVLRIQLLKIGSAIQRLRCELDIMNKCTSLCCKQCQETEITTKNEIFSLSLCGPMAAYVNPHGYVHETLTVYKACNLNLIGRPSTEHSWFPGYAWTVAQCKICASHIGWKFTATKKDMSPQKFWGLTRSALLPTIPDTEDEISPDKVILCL

Structure (SMILES) | Activity [1] | Activity [2] | Activity [3] | Activity [4]
C[C@H]1[C@H](C)CC[C@]2(C(=O)NCCCCCCOCCOCCOCCCCCC(=O)Nc3cccc4c3C(=O)N(C3CCC(=O)NC3=O)C4=O)CC[C@]3(C)C(=CC[C@@H]4[C@@]5(C)CC[C@H](O)C(C)(C)[C@@H]5CC[C@]43C)[C@H]12 (stereo partly specified) | 6% | 16% | < 5% | 17%
C[C@H]1[C@H](C)CC[C@]2(C(=O)NCCCCCCOCCOCCCCCC(=O)Nc3cccc4c3C(=O)N(C3CCC(=O)NC3=O)C4=O)CC[C@]3(C)C(=CC[C@@H]4[C@@]5(C)CC[C@H](O)C(C)(C)[C@@H]5CC[C@]43C)[C@H]12 (stereo partly specified) | 29% | 18% | 47% | 5%
CC1(C)CC[C@]2(C(=O)NCCCCCCOCCOCCOCC(=O)Nc3cccc4c3C(=O)N(C3CCC(=O)NC3=O)C4=O)CC[C@]3(C)C(=CC[C@@H]4[C@@]5(C)CC[C@H](O)C(C)(C)[C@@H]5CC[C@]43C)[C@@H]2C1 (stereo partly specified) | 38% | 84% | 56% | < 5%
CC1(C)CC[C@]2(C(=O)NCCCCCCNc3cccc4c3C(=O)N(C3CCC(=O)NC3=O)C4=O)CC[C@]3(C)C(=CC[C@@H]4[C@@]5(C)CC[C@H](O)C(C)(C)[C@@H]5CC[C@]43C)[C@@H]2C1 (stereo partly specified) | 43% | 38% | 44% | 29%
C[C@H]1[C@H](C)CC[C@]2(C(=O)NCCCCCCNc3cccc4c3C(=O)N(C3CCC(=O)NC3=O)C4=O)CC[C@]3(C)C(=CC[C@@H]4[C@@]5(C)CC[C@H](O)C(C)(C)[C@@H]5CC[C@]43C)[C@H]12 (stereo partly specified) | 23% | 11% | 67% | 14%
C[C@H]1[C@H](C)CC[C@]2(C(=O)NCCCCCCOCCOCCOCCOCCCCCC(=O)Nc3cccc4c3C(=O)N(C3CCC(=O)NC3=O)C4=O)CC[C@]3(C)C(=CC[C@@H]4[C@@]5(C)CC[C@H](O)C(C)(C)[C@@H]5CC[C@]43C)[C@H]12 (stereo partly specified) | 12% | < 5% | < 5% | 42%
O=C1CCC(N2C(=O)c3cccc(NC(=O)CCCCCOCCOCCCCCCNC(=O)c4cccc(NC(=O)CSc5nc6ccccc6[nH]5)c4)c3C2=O)C(=O)N1 (stereo unspecified) | 13% | < 5% | 17% | 10%
CC1(C)CC[C@]2(C(=O)NCCCCCCOCCOCCCCCC(=O)Nc3cccc4c3C(=O)N(C3CCC(=O)NC3=O)C4=O)CC[C@]3(C)C(=CC[C@@H]4[C@@]5(C)CC[C@H](O)C(C)(C)[C@@H]5CC[C@]43C)[C@@H]2C1 (stereo partly specified) | 36% | 45% | 33% | < 5%
CC1(C)CC[C@]2(C(=O)NCCCCCCOCCOCC(=O)Nc3cccc4c3C(=O)N(C3CCC(=O)NC3=O)C4=O)CC[C@]3(C)C(=CC[C@@H]4[C@@]5(C)CC[C@H](O)C(C)(C)[C@@H]5CC[C@]43C)[C@@H]2C1 (stereo partly specified) | 26% | 57% | 51% | < 5%
O=C1CCC(N2C(=O)c3cccc(NC(=O)COCCOCCOCCOCCCCCCNC(=O)c4cccc(NC(=O)CSc5nc6ccccc6[nH]5)c4)c3C2=O)C(=O)N1 (stereo unspecified) | 44% | 26% | 70% | 15%
CC1(C)CC[C@]2(C(=O)NCCCCCCOCCOCCOCCCCCC(=O)Nc3cccc4c3C(=O)N(C3CCC(=O)NC3=O)C4=O)CC[C@]3(C)C(=CC[C@@H]4[C@@]5(C)CC[C@H](O)C(C)(C)[C@@H]5CC[C@]43C)[C@@H]2C1 (stereo partly specified) | < 5% | 8% | 16% | 22%

Second part, the compound after the results:

Activity [1] | Activity [2] | Activity [3] | Activity [4] | Structure (SMILES)
< 5% | 32% | 17% | < 5% | O=C1CCC(N2C(=O)c3cccc(NC(=O)CCCCCOCCOCCOCCOCCCCCCNC(=O)c4cccc(NC(=O)CSc5nc6ccccc6[nH]5)c4)c3C2=O)C(=O)N1 (stereo unspecified)
54% | 36% | 65% | 46% | C[C@H]1[C@H](C)CC[C@]2(C(=O)NCCCOCCCCOCCCNc3cccc4c3C(=O)N(C3CCC(=O)NC3=O)C4=O)CC[C@]3(C)C(=CC[C@@H]4[C@@]5(C)CC[C@H](O)C(C)(C)C5CC[C@]43C)[C@H]12 (stereo partly specified)
< 5% | 8% | 32% | 30% | O=C1CCC(N2C(=O)c3cccc(NC(=O)CCCCCOCCOCCOCCCCCCNC(=O)c4cccc(NC(=O)CSc5nc6ccccc6[nH]5)c4)c3C2=O)C(=O)N1 (stereo unspecified)
43% | 24% | 69% | < 5% | O=C1CCC(N2C(=O)c3cccc(NC(=O)COCCOCCCCCCNC(=O)c4cccc(NC(=O)CSc5nc6ccccc6[nH]5)c4)c3C2=O)C(=O)N1 (stereo unspecified)
6% | 24% | 51% | 32% | CC1(C)CC[C@]2(C(=O)NCCCCCCOCCOCCOCCOCC(=O)Nc3cccc4c3C(=O)N(C3CCC(=O)NC3=O)C4=O)CC[C@]3(C)C(=CC[C@@H]4[C@@]5(C)CC[C@H](O)C(C)(C)[C@@H]5CC[C@]43C)[C@@H]2C1 (stereo partly specified)
13% | 71% | 38% | < 5% | O=C1CCC(N2C(=O)c3cccc(NC(=O)COCCOCCOCCCCCCNC(=O)c4cccc(NC(=O)CSc5nc6ccccc6[nH]5)c4)c3C2=O)C(=O)N1 (stereo unspecified)
< 5% | 46% | 60% | < 5% | C[C@H]1[C@H](C)CC[C@]2(C(=O)NCCCCCCOCCOCC(=O)Nc3cccc4c3C(=O)N(C3CCC(=O)NC3=O)C4=O)CC[C@]3(C)C(=CC[C@@H]4[C@@]5(C)CC[C@H](O)C(C)(C)[C@@H]5CC[C@]43C)[C@H]12 (stereo partly specified)
19% | 32% | 9% | < 5% | O=C1CCC(N2C(=O)c3cccc(NC(=O)CCCCCCCCCCNC(=O)c4cccc(NC(=O)CSc5nc6ccccc6[nH]5)c4)c3C2=O)C(=O)N1 (stereo unspecified)
